Assay results: PubChem BioAssay (NCI)
“And” between values parts separate entries of the source, which are not always exact repeats. Equal entries are not always repeated.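 Values below derive from 48-hour exposures of cells grown in 96-well plates, with endpoints linearly interpolated between the two concentrations bracketing the appropriate inhibition level. GI50: concentration for 50% inhibition of growth. At the TGI there is no net growth.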

Assays:
Test in all cases: growth of human tumour cells (NCI), 48 h
[1] = test system: HCC-2998 colon
[2] = test system: A549 NSCLC
[3] = test system: KM12 colon
[4] = test system: UO-31 renal
[5] = test system: HOP-92 NSCLC
[6] = test system: SF-295 CNS
[7] = test system: SK-MEL-28 melanoma
[8] = test system: LOX IMVI melanoma
[9] = test system: SNB-19 CNS
[10] = test system: COLO 205 colon

Q: For `CC(C)(CN1CCCCC1)C(=O)/C=C/c1ccc(Br)cc1`, which TGI [1] is on record?
A: 31.7 µM

Q: And the TGI [2]?
A: 7.9 µM

Q: What about the TGI [3] of the same molecule?
A: 11.9 µM

Q: What about the TGI [4] of the same molecule?
A: > 24.7 µM

Q: And the TGI [5]?
A: 4.1 µM

Q: And the TGI [6]?
A: 17.4 µM

Q: And the TGI [7]?
A: 11.7 µM

Q: What about the TGI [8] of the same molecule?
A: 4.63 µM

Q: And the TGI [9]?
A: 4.75 µM

Q: What about the TGI [10] of the same molecule?
A: 5.56 µM

Q: How did the TGI [1] turn out when `COC(=O)[C@@]12OC[C@]34C([C@@H](O)C1O)[C@@]1(C)CC(=O)C(OC(=O)CC(C)C(F)(F)F)=C(C)C1C[C@H]3OC(=O)[C@H](O)[C@H]42` (stereo partly drawn) was run?
A: 11 µM

Q: And the TGI [2]?
A: > 62.5 µM

Q: What about the TGI [3] of the same molecule?
A: > 62.5 µM

Q: And the TGI [4]?
A: > 62.5 µM

Q: And the TGI [5]?
A: 23.1 µM

Q: What about the TGI [6] of the same molecule?
A: 42.5 µM

Q: What about the TGI [7] of the same molecule?
A: 18.2 µM

Q: What about the TGI [9] of the same molecule?
A: 22.4 µM

Q: What about the TGI [10] of the same molecule?
A: 30 µM

Q: For `CN1CCOC(C(NC(=O)c2ccccc2)c2ccccc2)C1=O` (stereo not drawn), which TGI [1] is on record?
A: > 100 µM

Q: What about the TGI [2] of the same molecule?
A: > 100 µM

Q: What about the TGI [3] of the same molecule?
A: > 100 µM

Q: And the TGI [4]?
A: > 100 µM

Q: What about the TGI [5] of the same molecule?
A: > 100 µM

Q: What about the TGI [6] of the same molecule?
A: > 100 µM

Q: And the TGI [7]?
A: > 100 µM

Q: And the TGI [8]?
A: > 100 µM

Q: And the TGI [9]?
A: > 100 µM

Q: What about the TGI [10] of the same molecule?
A: > 100 µM

Q: Which TGI [1] does the source give for `COC(=O)C(C(=O)C(=O)Nc1c(Cl)cc([N+](=O)[O-])cc1Cl)c1csc(-n2nc(C3=CCCCC3)cc2-c2ccccc2)n1` (stereo not drawn) here?
A: > 100 µM

Q: And the TGI [2]?
A: > 100 µM

Q: What about the TGI [3] of the same molecule?
A: > 100 µM

Q: What about the TGI [4] of the same molecule?
A: > 100 µM

Q: What about the TGI [5] of the same molecule?
A: 77.7 µM

Q: What about the TGI [6] of the same molecule?
A: > 100 µM

Q: And the TGI [8]?
A: > 100 µM

Q: What about the TGI [9] of the same molecule?
A: > 100 µM

Q: And the TGI [10]?
A: > 100 µM

Q: For `CCOC(=O)C1S(=O)(=O)OCCOS1(=O)=O`, which TGI [1] is on record?
A: > 100 µM

Q: What about the TGI [2] of the same molecule?
A: > 100 µM

Q: And the TGI [3]?
A: > 100 µM

Q: And the TGI [4]?
A: > 100 µM

Q: And the TGI [5]?
A: > 100 µM

Q: And the TGI [6]?
A: > 100 µM

Q: What about the TGI [7] of the same molecule?
A: > 100 µM

Q: What about the TGI [8] of the same molecule?
A: > 100 µM

Q: What about the TGI [9] of the same molecule?
A: > 100 µM

Q: What about the TGI [10] of the same molecule?
A: > 100 µM

Q: With `O=C1c2ccccc2N2OC3(N4CCOCC4)CCCC3C12c1ccccc1` (stereo not drawn) as the molecule, how does the TGI [1] read?
A: > 100 µM

Q: What about the TGI [2] of the same molecule?
A: > 100 µM

Q: What about the TGI [4] of the same molecule?
A: > 100 µM

Q: What about the TGI [5] of the same molecule?
A: > 100 µM

Q: And the TGI [6]?
A: > 100 µM

Q: And the TGI [7]?
A: > 100 µM

Q: What about the TGI [9] of the same molecule?
A: > 100 µM

Q: What about the TGI [10] of the same molecule?
A: > 100 µM

Q: How did the TGI [1] turn out when `O=c1cc(Nc2cccc(O)c2)[nH]c(=O)[nH]1` was run?
A: > 100 µM

Q: What about the TGI [2] of the same molecule?
A: > 100 µM

Q: And the TGI [3]?
A: > 100 µM

Q: And the TGI [4]?
A: > 100 µM

Q: And the TGI [5]?
A: > 100 µM

Q: What about the TGI [6] of the same molecule?
A: > 100 µM

Q: And the TGI [7]?
A: > 100 µM

Q: What about the TGI [8] of the same molecule?
A: > 100 µM

Q: What about the TGI [9] of the same molecule?
A: > 100 µM

Q: And the TGI [10]?
A: > 100 µM

Q: What does the source list for `CC(=O)OC1COC(N2CCc3cc([N+](=O)[O-])ccc32)C(OC(C)=O)C1OC(C)=O` (stereo not drawn)?
A: TGI [2]: > 100 µM; TGI [3]: > 100 µM; TGI [4]: > 100 µM; TGI [5]: > 100 µM; TGI [6]: > 100 µM; TGI [7]: > 100 µM; TGI [8]: > 100 µM; TGI [9]: > 100 µM; TGI [10]: > 100 µM

Q: How did the TGI [1] turn out when `O=[N+]([O-])c1cccc2nc3ccccc3c(NCCCCCNc3c4ccccc4nc4cccc([N+](=O)[O-])c34)c12` was run?
A: 0.103 µM and 0.04 µM

Q: What about the TGI [3] of the same molecule?
A: 0.249 µM and 0.029 µM

Q: And the GI50 [4]?
A: 19.2 nM

Q: And the TGI [4]?
A: 0.406 µM and 0.0604 µM

Q: What about the TGI [5] of the same molecule?
A: 0.0973 µM

Q: What about the GI50 [6] of the same molecule?
A: 22.6 nM

Q: And the TGI [6]?
A: 0.905 µM and 1.13 µM

Q: And the GI50 [7]?
A: 55.9 nM

Q: And the TGI [7]?
A: 0.455 µM and 0.241 µM

Q: What about the GI50 [8] of the same molecule?
A: 74.6 nM

Q: And the TGI [10]?
A: 0.13 µM and 0.0322 µM

Q: For `NNC(=O)C(=O)NN=C(C(Cl)(Cl)CO)C(Cl)(Cl)CO`, which TGI [1] is on record?
A: > 100 µM

Q: What about the TGI [2] of the same molecule?
A: > 100 µM

Q: What about the TGI [3] of the same molecule?
A: > 100 µM

Q: What about the TGI [4] of the same molecule?
A: > 100 µM

Q: What about the TGI [5] of the same molecule?
A: 83.7 µM

Q: And the TGI [6]?
A: > 100 µM

Q: And the TGI [7]?
A: 97.9 µM

Q: What about the TGI [8] of the same molecule?
A: 35.3 µM

Q: And the TGI [9]?
A: > 100 µM

Q: What about the TGI [10] of the same molecule?
A: > 100 µM

Q: Which results are given for `CCOC(=O)/C(=C/c1ccccn1)C(=O)c1ccccc1`?
A: TGI [1]: 31.3 µM; TGI [2]: 44.5 µM; TGI [3]: 26.4 µM; TGI [4]: 30 µM; TGI [5]: 21.1 µM; TGI [6]: 27.6 µM; TGI [7]: 27.3 µM; TGI [8]: 6.94 µM; TGI [9]: 31.8 µM; TGI [10]: 28.3 µM

Q: Which TGI [1] does the source give for `O=C(c1ccccc1)C1(Br)S(=O)(=O)OCCOS1(=O)=O` here?
A: > 100 µM

Q: And the TGI [2]?
A: > 100 µM

Q: What about the TGI [4] of the same molecule?
A: > 100 µM

Q: What about the TGI [5] of the same molecule?
A: > 100 µM

Q: And the TGI [6]?
A: > 100 µM

Q: What about the TGI [7] of the same molecule?
A: > 100 µM

Q: What about the TGI [8] of the same molecule?
A: > 100 µM

Q: And the TGI [9]?
A: > 100 µM

Q: What about the TGI [10] of the same molecule?
A: > 100 µM

Q: With `C=CCON(C(=O)OC(C)(C)C)C(C)(C)C` as the molecule, how does the TGI [1] read?
A: > 100 µM

Q: What about the TGI [2] of the same molecule?
A: > 100 µM

Q: And the TGI [3]?
A: > 100 µM

Q: What about the TGI [4] of the same molecule?
A: > 100 µM

Q: And the TGI [5]?
A: > 100 µM

Q: And the TGI [6]?
A: > 100 µM

Q: And the TGI [7]?
A: > 100 µM

Q: And the TGI [8]?
A: > 100 µM

Q: And the TGI [9]?
A: > 100 µM

Q: And the TGI [10]?
A: > 100 µM

Q: What does the source list for `COc1ccc2ccccc2c1C1=NC(C)(C)CO1`?
A: TGI [2]: > 100 µM; TGI [3]: > 100 µM; TGI [4]: > 100 µM; TGI [5]: > 100 µM; TGI [6]: > 100 µM; TGI [7]: > 100 µM; TGI [9]: > 100 µM; TGI [10]: > 100 µM

Q: Which results are given for `COc1ccc(-c2c(C3=NCCCN3)nnn2-c2ccccc2)cc1`?
A: TGI [1]: > 100 µM; TGI [2]: > 100 µM; TGI [3]: > 100 µM; TGI [4]: > 100 µM; TGI [5]: > 100 µM; TGI [6]: > 100 µM; TGI [7]: > 100 µM; TGI [8]: > 100 µM; TGI [9]: > 100 µM; TGI [10]: > 100 µM

Q: `C1CCC(N=C2N(C3CCCCC3)C(=NC3CCCCC3)N2C2CCCCC2)CC1` was tested. Which TGI [1] did it give?
A: > 100 µM

Q: What about the TGI [2] of the same molecule?
A: > 100 µM

Q: And the TGI [3]?
A: > 100 µM

Q: What about the TGI [4] of the same molecule?
A: > 100 µM

Q: And the TGI [5]?
A: > 100 µM

Q: What about the TGI [6] of the same molecule?
A: > 100 µM

Q: What about the TGI [7] of the same molecule?
A: > 100 µM

Q: And the TGI [8]?
A: > 100 µM

Q: What about the TGI [9] of the same molecule?
A: > 100 µM

Q: And the TGI [10]?
A: > 100 µM

Q: How did the TGI [1] turn out when `C1CSCCSCCCS[C@@H]2CCCCC2SC1` (stereo partly drawn) was run?
A: > 100 µM

Q: And the TGI [2]?
A: > 100 µM

Q: What about the TGI [3] of the same molecule?
A: > 100 µM

Q: And the TGI [4]?
A: > 100 µM

Q: And the TGI [5]?
A: > 100 µM

Q: And the TGI [6]?
A: > 100 µM

Q: What about the TGI [7] of the same molecule?
A: > 100 µM

Q: What about the TGI [8] of the same molecule?
A: > 100 µM

Q: What about the TGI [9] of the same molecule?
A: > 100 µM

Q: What about the TGI [10] of the same molecule?
A: > 100 µM

Q: Which results are given for `O=C1CC(c2ccc(Cl)cc2)=Nc2ccccc2N1`?
A: TGI [1]: > 100 µM; TGI [2]: > 100 µM; TGI [3]: > 100 µM; TGI [4]: > 100 µM; TGI [5]: 71.1 µM; TGI [6]: > 100 µM; TGI [7]: > 100 µM; TGI [8]: 58.8 µM; TGI [9]: > 100 µM; TGI [10]: > 100 µM
